PubChem BioAssay AID196 (DTP/NCI, 2004)
Where “and” joins values, the source holds several entries; their conditions need not be identical. Equal entries are not always repeated. Toxic doses and inconclusive results are not listed.

System: BDF1 mice, intracerebral B16 melanoma, median survival T/C
Experiment: NCI In Vivo Anticancer Drug Screen. Data for tumor model B16 Melanoma (intracerebral) in B6D2F1 (BDF1) mice
Settings: endpoint: median survival time, higher = longer survival
Description: The antitumor activity of compounds was measured in mice bearing transplantable tumors. Survival or tumor size were measured and the results are expressed as the measurement made in the treated group (T) divided by the measurement made in the vehicle treated control group (C). The tumor model used in this assay is B16 Melanoma (intracerebral) in B6D2F1 (BDF1) mice

[1] = dose: 0.13 mg/kg/injection, schedule: Q01DX009 (ip), vehicle: saline
[2] = dose: 100.0 mg/kg/injection, schedule: Q01DX009 (ip), vehicle: saline
[3] = dose: 200.0 mg/kg/injection, schedule: Q01DX009 (ip), vehicle: saline
[4] = dose: 6.25 mg/kg/injection, schedule: Q01DX009 (ip), vehicle: other
[5] = dose: 12.5 mg/kg/injection, schedule: Q01DX009 (ip), vehicle: other
[6] = dose: 25.0 mg/kg/injection, schedule: Q01DX009 (ip), vehicle: other
[7] = dose: 50.0 mg/kg/injection, schedule: Q01DX009 (ip), vehicle: other
[8] = dose: 16.0 mg/kg/injection, schedule: Q01DX005 (ip), vehicle: saline
[9] = dose: 32.0 mg/kg/injection, schedule: Q01DX005 (ip), vehicle: saline
[10] = dose: 128.0 mg/kg/injection, schedule: Q01DX005 (ip), vehicle: saline
[11] = dose: 1.0 mg/kg/injection, schedule: Q01DX009 (ip), vehicle: saline
[12] = dose: 25.0 mg/kg/injection, schedule: Q01DX009 (ip), vehicle: saline

Question: How did the T/C (dose: 26.7 mg/kg/injection, schedule: Q01DX001 (ip), vehicle: Klucel (hydroxypropylcellulose) (HPC)) turn out when `O=NN(CCF)C(=O)N[C@H]1CCCC[C@H]1O` was run?
Answer: 151 % of control

Question: What about the T/C (dose: 40.0 mg/kg/injection, schedule: Q01DX001 (ip), vehicle: Klucel (hydroxypropylcellulose) (HPC)) of the same compound?
Answer: 155 % of control

Question: What about the T/C (dose: 60.0 mg/kg/injection, schedule: Q01DX001 (ip), vehicle: Klucel (hydroxypropylcellulose) (HPC)) of the same compound?
Answer: 330 % of control

Question: `CC[C@]1(O)C[C@H]2CN(CCc3c([nH]c4ccccc34)[C@@](C(=O)OC)(c3cc4c(cc3OC)N(C=O)[C@H]3[C@@](O)(C(=O)OC)[C@H](OC(C)=O)[C@]5(CC)C=CCN6CC[C@]43[C@@H]65)C2)C1` was tested. Which T/C (dose: 0.02 mg/kg/injection, schedule: Q01DX009 (ip), vehicle: saline) did it give?
Answer: 96 % of control

Question: And the T/C (dose: 0.03 mg/kg/injection, schedule: Q01DX009 (ip), vehicle: saline)?
Answer: 96 % of control

Question: And the T/C (dose: 0.06 mg/kg/injection, schedule: Q01DX009 (ip), vehicle: saline)?
Answer: 92 % of control and 95 % of control

Question: What about the T/C [1] of the same compound?
Answer: 117 % of control and 108 % of control

Question: What about the T/C (dose: 0.26 mg/kg/injection, schedule: Q01DX009 (ip), vehicle: saline) of the same compound?
Answer: 100 % of control

Question: Which T/C (dose: 50.0 mg/kg/injection, schedule: Q01DX009 (ip), vehicle: Klucel (hydroxypropylcellulose) (HPC)) does the source give for `CN(CO)c1nc(N(C)CO)nc(N(C)CO)n1` here?
Answer: 100 % of control and 104 % of control

Question: And the T/C (dose: 100.0 mg/kg/injection, schedule: Q01DX009 (ip), vehicle: Klucel (hydroxypropylcellulose) (HPC))?
Answer: 120 % of control and 106 % of control

Question: How did the T/C (dose: 100.0 mg/kg/injection, schedule: Q01DX009 (ip), vehicle: saline with Tween-80) turn out when `Cc1cn(C2CC(O)C(CO)O2)c(=O)[nH]c1=O` (stereo not drawn) was run?
Answer: 102 % of control and 109 % of control

Question: And the T/C [2]?
Answer: 100 % of control and 111 % of control

Question: And the T/C (dose: 200.0 mg/kg/injection, schedule: Q01DX009 (ip), vehicle: saline with Tween-80)?
Answer: 105 % of control

Question: And the T/C [3]?
Answer: 103 % of control and 110 % of control

Question: And the T/C (dose: 400.0 mg/kg/injection, schedule: Q01DX009 (ip), vehicle: saline with Tween-80)?
Answer: 105 % of control

Question: And the T/C (dose: 400.0 mg/kg/injection, schedule: Q01DX009 (ip), vehicle: saline)?
Answer: 94 % of control and 101 % of control

Question: And the T/C (dose: 800.0 mg/kg/injection, schedule: Q01DX009 (ip), vehicle: saline with Tween-80)?
Answer: 124 % of control and 95 % of control

Question: And the T/C (dose: 800.0 mg/kg/injection, schedule: Q01DX009 (ip), vehicle: saline)?
Answer: 100 % of control and 107 % of control

Question: And the T/C (dose: 1600.0 mg/kg/injection, schedule: Q01DX009 (ip), vehicle: saline with Tween-80)?
Answer: 92 % of control and 94 % of control

Question: Which T/C (dose: 2.0 mg/kg/injection, schedule: Q01DX005 (ip), vehicle: Klucel (hydroxypropylcellulose) (HPC)) does the source give for `CC[C@H]1CN2CCc3cc(OC)c(OC)cc3[C@@H]2C[C@@H]1C[C@H]1NCCc2cc(OC)c(OC)cc21` here?
Answer: 100 % of control and 104 % of control

Question: What about the T/C (dose: 4.0 mg/kg/injection, schedule: Q01DX005 (ip), vehicle: Klucel (hydroxypropylcellulose) (HPC)) of the same compound?
Answer: 90 % of control and 110 % of control

Question: And the T/C (dose: 8.0 mg/kg/injection, schedule: Q01DX005 (ip), vehicle: Klucel (hydroxypropylcellulose) (HPC))?
Answer: 86 % of control and 112 % of control

Question: How did the T/C [4] turn out when `CN(C)N=Nc1cccc2c1N(C)c1ccc(Cl)cc1S2` was run?
Answer: 103 % of control

Question: What about the T/C [5] of the same compound?
Answer: 100 % of control

Question: What about the T/C [6] of the same compound?
Answer: 108 % of control

Question: What about the T/C [7] of the same compound?
Answer: 101 % of control

Question: And the T/C (dose: 100.0 mg/kg/injection, schedule: Q01DX009 (ip), vehicle: other)?
Answer: 101 % of control

Question: `COS(C)(=O)=O` was tested. Which T/C [8] did it give?
Answer: 89 % of control

Question: And the T/C [9]?
Answer: 100 % of control

Question: What about the T/C (dose: 64.0 mg/kg/injection, schedule: Q01DX005 (ip), vehicle: saline) of the same compound?
Answer: 95 % of control

Question: What about the T/C [10] of the same compound?
Answer: 106 % of control

Question: What does the source list for `CO[C@H](C(=O)[C@@H](O)[C@@H](C)O)[C@@H]1Cc2cc3cc(OC4CC(OC5CC(O)C(O)C(C)O5)C(O)C(C)O4)c(C)c(O)c3c(O)c2C(=O)[C@H]1OC1CC(OC2CC(OC3CC(C)(O)C(O)C(C)O3)C(O)C(C)O2)C(O)C(C)O1` (stereo partly drawn)?
Answer: T/C [1]: 91 % of control and 95 % of control; T/C (dose: 0.25 mg/kg/injection, schedule: Q01DX009 (ip), vehicle: saline): 109 % of control and 112 % of control; T/C (dose: 0.5 mg/kg/injection, schedule: Q01DX009 (ip), vehicle: saline): 91 % of control and 100 % of control; T/C [11]: 87 % of control and 90 % of control

Question: With `Nc1n[nH]c(N)n1` as the compound, how does the T/C [10] read?
Answer: 95 % of control and 111 % of control

Question: And the T/C (dose: 256.0 mg/kg/injection, schedule: Q01DX005 (ip), vehicle: saline)?
Answer: 97 % of control and 106 % of control

Question: And the T/C (dose: 512.0 mg/kg/injection, schedule: Q01DX005 (ip), vehicle: saline)?
Answer: 116 % of control and 103 % of control

Question: What about the T/C (dose: 1024.0 mg/kg/injection, schedule: Q01DX005 (ip), vehicle: saline) of the same compound?
Answer: 118 % of control and 93 % of control

Question: `CN(C)N=Nc1ccnc2c(Cl)cccc12` was tested. Which T/C (dose: 3.12 mg/kg/injection, schedule: Q01DX009 (ip), vehicle: other) did it give?
Answer: 110 % of control

Question: And the T/C [4]?
Answer: 116 % of control

Question: And the T/C [5]?
Answer: 110 % of control

Question: And the T/C [6]?
Answer: 108 % of control

Question: What about the T/C [7] of the same compound?
Answer: 112 % of control

Question: How did the T/C (dose: 1.56 mg/kg/injection, schedule: Q01DX009 (ip), vehicle: saline) turn out when `CN(N=O)C(N)=O` was run?
Answer: 118 % of control

Question: What about the T/C (dose: 6.25 mg/kg/injection, schedule: Q01DX009 (ip), vehicle: saline) of the same compound?
Answer: 112 % of control

Question: And the T/C [12]?
Answer: 168 % of control

Question: With `F` as the compound, how does the T/C [8] read?
Answer: 102 % of control

Question: And the T/C [9]?
Answer: 100 % of control

Question: `CNNCc1ccc(C(=O)NC(C)C)cc1` was tested. Which T/C [12] did it give?
Answer: 120 % of control

Question: What about the T/C (dose: 75.0 mg/kg/injection, schedule: Q01DX009 (ip), vehicle: water) of the same compound?
Answer: 154 % of control

Question: And the T/C [2]?
Answer: 163 % of control

Question: What about the T/C (dose: 150.0 mg/kg/injection, schedule: Q01DX009 (ip), vehicle: water) of the same compound?
Answer: 163 % of control

Question: And the T/C [3]?
Answer: 168 % of control and 170 % of control

Question: And the T/C (dose: 300.0 mg/kg/injection, schedule: Q01DX009 (ip), vehicle: water)?
Answer: 100 % of control

Question: With `S=P(N1CC1)(N1CC1)N1CC1` as the compound, how does the T/C [11] read?
Answer: 108 % of control (2×) and 113 % of control

Question: What about the T/C (dose: 2.0 mg/kg/injection, schedule: Q01DX009 (ip), vehicle: saline) of the same compound?
Answer: 100 % of control

Question: What about the T/C (dose: 4.0 mg/kg/injection, schedule: Q01DX009 (ip), vehicle: saline) of the same compound?
Answer: 120 % of control and 122 % of control

Question: And the T/C (dose: 8.0 mg/kg/injection, schedule: Q01DX009 (ip), vehicle: saline)?
Answer: 172 % of control

Question: Which T/C (dose: 32.0 mg/kg/injection, schedule: Q01DX005 (ip), vehicle: Klucel (hydroxypropylcellulose) (HPC)) does the source give for `NC(CSC(c1ccccc1)(c1ccccc1)c1ccccc1)C(=O)O` (stereo not drawn) here?
Answer: 105 % of control and 115 % of control

Question: And the T/C (dose: 64.0 mg/kg/injection, schedule: Q01DX005 (ip), vehicle: Klucel (hydroxypropylcellulose) (HPC))?
Answer: 105 % of control and 112 % of control

Question: And the T/C (dose: 128.0 mg/kg/injection, schedule: Q01DX005 (ip), vehicle: Klucel (hydroxypropylcellulose) (HPC))?
Answer: 117 % of control and 119 % of control

Question: And the T/C (dose: 256.0 mg/kg/injection, schedule: Q01DX005 (ip), vehicle: Klucel (hydroxypropylcellulose) (HPC))?
Answer: 124 % of control and 107 % of control
